Source: US9062037B2, “Tazarotene derivatives” (Stiefel Laboratories, Inc., priority 2009, dated 2015)
Read-outs that look alike come from different tables or passages of the source.

Tests used:
[1] = HPLC analysis of mixtures of DUAC gel and TAZORAC cream (degradation of tazarotene in the presence of benzoyl peroxide); format: physicochemical; conditions: fresh samples
Description: DUAC® gel (1% clindamycin and 5% benzoyl peroxide marketed by Stiefel Laboratories, Inc.) and TAZORAC® cream (0.1% tazarotene marketed by Allergan, Inc.) have been successfully used to treat facial acne. However, these topical treatments are not approved for concomitant use. To study whether tazarotene is susceptible to oxidative decomposition by benzoyl peroxide, an in vitro laboratory study was conducted wherein a mixture of DUAC gel and TAZORAC cream was prepared.
Samples were prepared by taking equal portions of DUAC gel and TAZORAC cream and mixing them thoroughly at room temperature with a spatula in a suitable container to form a uniform mixture. The initial samples were analyzed immediately by HPLC. The other samples were placed into an oven at 35° C. and removed for analysis after one, two, four, six and eight hours. An allowance was made for product evaporation over the course of the study.

[2] = In vitro application of DUAC gel/TAZORAC cream mixture to split-thickness human skin; tazarotene and degradants quantified by LC/MS/MS; format: in vitro ADME; conditions: for detected in the receiving medium (passing through the skin): DUAC/TAZORAC mixture applied to split-thickness human skin
Description: An in vitro study was conducted to assess the formation of tazarotene degradants following the application of a mixture of DUAC gel and TAZORAC cream to human skin.
Equal portions of DUAC gel and TAZORAC cream were dispensed into a glass vial and mixed for approximately three minutes with a metal spatula to ensure a homogenous mixture. Samples of European DUAC gel and US DUAC gel were used in separate experiments. […] The test mixtures were then applied to the surface of split-thickness skin (˜0.25 mm) at a dose of 15.6 mg/cm^2 and spread evenly using a positive displacement pipette.
After 2 and 6 hours, the skin samples were washed, tape stripped twice, and then the epidermis was peeled from the dermis using a heat block. The skin samples were then extracted with acetonitrile overnight at 4° C. The distribution of tazarotene and its degradants within the epidermis, dermis and surface wash were quantified by LC/MS/MS with a 50 pg/mL LOQ. The experiments were performed under yellow light conditions. For the purposes of comparison, mixtures of DUAC gel and TAZORAC cream were also prepared and retained for stability testing at 0, 2 and 6 hour time points.

[3] = test system: SkinEthic RHE cultures; assay: IL-1α and IL-8 activity assay in SkinEthic RHE cultures; format: cell-based, human; conditions: 6 μl test article, 72 hours
Description: SkinEthic RHE cultures were transferred into 6-well plates containing 1.0 mL/well growth media. The cultures were equilibrated at 37° C. and the media was changed daily. The cultures were subsequently placed in 60 mm petri dishes containing 3.5 mL growth media. 6 μl aliquots of the Test Articles shown in Table 3 were applied to duplicate cultures. The cultures were incubated at 37° C. for 72 hours. At the end of the incubation period, the growth media was collected and stored at −20° C. The tissues were cut in half and one half was placed in 10% NBF for histology, while the other half was placed in RNAlater™ solution (Ambion). The following analyses were performed: a) IL-1α and IL-8 activity assay; b) Hand E staining; c) Immunohistochemistry for K10, K19 and filaggrin; and d) qRT-PCR to quantitate K10, K19 and filaggrin expression.

[4] = Stability in human plasma at room temperature; format: in vitro ADME
Description: Tazarotene, tazarotene sulfoxide and tazarotene benzoate were incubated at room temperature with human and rat plasma. The incubation was carried out in duplicate and samples were taken at specific time points for stability analyses (i) rat samples (0 hour, 2 hours and 4 hours) and (ii) human samples (0 hour, 2 hours, 4 hours and 8 hours). Samples were analyzed by LC-MS/MS.

[5] = test system: Reconstructed human epidermis (RHE) tissues; assay: RT-qPCR gene expression of K10, K19, filaggrin, K4 and K13 in reconstructed human epidermis (RHE) cultures; format: cell-based; conditions: 72 h, 2.83 mM in OD/10% DMSO, 6 μl
Description: Reconstructed human epidermis (RHE) tissues were cultured in-house as previously described by Poumay et al. Briefly, polycarbonate culture inserts (12 mm diameter and 0.4 μm pore size, Millipore) were filled with 150 μL of a suspension containing approximately 5×10^5 primary adult human keratinocytes. The inserts received another 500 μL of keratinocyte culture media and were placed in a 6-well plate (1 insert/well) containing 2.5 mL of RHE Growth Media (Epilife media +1.5 mM CaCl2). RHE cultures were incubated at 37° C. in a humidified atmosphere containing 5% CO2, for 24 hours. Subsequently (on Day 0), RHE cultures were exposed to the air-liquid interface by removing the RHE Growth Media from the top of the cultures, and replacing with 1.5 mL/well of RHE Growth Media containing 50 μg/mL vitamin C. Media was changed every other day until the cultures were dosed with Test Articles. A stock solution of 0.1% tazarotene (2.83 mM at 99.5% purity) in OD/10% DMSO was prepared. For tazarotene benzoate, hydroxytazarotenic acid, keto tazarotenic acid, keto tazarotene, and tazarotene nicotinate, a 10 mg/mL stock solution (in DMSO) was already prepared. From this stock solution, a 2.83 mM working solution (in octyldodecanol) was prepared. All other tested compounds were resuspended in DMSO and OD to obtain a final concentration of 2.83 mM in OD/10% DMSO. On Day 12, the cultures were placed in 60 mm petri dishes containing 3 mL of RHE Growth Media (+VitC). Test articles (6 μl) were applied to triplicate cultures and cultures were incubated at 37° C. for 72 hours. Untreated and OD alone served as negative controls. At the end of the incubation period, the growth media was collected and stored at −20° C. The tissues were cut in half: one half was placed in 10% NBF for histology, and the other half was placed in RNAlater™ solution for RT-qPCR. RNA was isolated and concentrations were determined using a NanoDrop spectrophotometer. In addition to using the same amount of RNA for each sample, data was normalized to internal GAPDH mRNA levels and is expressed as relative quantification (RQ) to untreated controls. RNA extracts from each replicate were amplified using RT-qPCR. The relative gene expression of five biomarkers was determined: Keratin 10, Keratin 19, Filaggrin, Keratin 4, and Keratin 13.

[6] = in vitro; conditions: human, liver microsomes, pH 7.4, Half-life, HLM
Description: Hepatic microsomal reactions were carried out in microcentrifuge tubes in the following manner. Human liver microsomes (0.5 or 1.0 mg/ml protein), Test Article (1 or 10 μM), paraoxon (0, 10 or 100 μM), NADPH regenerating system (10 mM glucose-6-phosphate, 1 unit/ml glucose-6-phosphate dehydrogenase, 1 mM NADP^+), magnesium chloride (5 mM) in 0.1 M potassium phosphate buffer, pH 7.4 were incubated at 37° C. in a shaking water bath. Reactions were initiated with the addition of substrate with the exception of the zero-time incubations. The total reaction volume was 0.2 ml. The reactions were incubated for 15, 30, 45 or 60 minutes, terminated with 0.2 ml ice-cold acetonitrile and then placed on ice. For zero-time incubations, ice cold acetonitrile was added to the mixture containing microsomes, along with NADPH regenerating system, magnesium chloride in phosphate buffer and the Test Article. Each time point was carried out in triplicate.
Disappearance of Test Article and formation of metabolites following in vitro metabolism were determined by LC-MS/MS using multiple reaction monitoring. LightSight® software (Applied Biosystems, Foster City, Calif.) was used to generate the mass spectrometry methods and carry out the data mining.
Control incubations were carried out with the identical incubation procedures as described above with the following exceptions. In negative control reactions, microsomes were not included. […] Duplicate reactions with an initial concentration of 10 μM were incubated for 0 or 30 minutes. Microsomal metabolic stability of 7-ethoxycoumarin was determined by LC-MS/MS.

[7] = read-out: K4 Fold Change vs Untreated/OD controls (upregulation)
[8] = read-out: K13 Fold Change vs Untreated/OD controls (upregulation)
[9] = read-out: K19 Fold Change vs Untreated/OD controls (upregulation)

Row | Compound | % Label Tazarotene Benzoate ([1]; 35° C., 4 hours) | detectable in epidermis and dermis samples ([2]; 2 and 6 hours post-application, all samples including the placebo) | detected in the receiving medium (passing through the skin) [2] | quantity in stability samples at the 6 hour time point relative to the 2 hour time point ([2]; mixture of DUAC gel and TAZORAC cream retained for stability testing) | IL-1α activity compared to untreated and vehicle controls [3] | concentration in human plasma ([4]; 0 hour) | concentration in human plasma ([4]; 2 hours) | concentration in human plasma ([4]; 4 hours) | concentration in human plasma ([4]; 8 hours) | fold induction at 2830 µM [5, 7] | fold induction at 2830 µM [5, 8] | fold induction at 2830 µM [5, 9] | half-life at 1 µM ([6]; Complete) | half-life at 1 µM ([6]; Without NADPH) | half-life at 10 µM ([6]; Complete) | half-life at 10 µM ([6]; Without NADPH) | tazarotene lost ([1]; mixture of DUAC gel and TAZORAC cream, after four hours)
1 | CCOC(=O)c1ccc(C#Cc2ccc3c(c2)C(C)(C)CC(OC(=O)c2ccccc2)S3)nc1 (stereo not drawn) [Compound 4, 6-(2-(2-benzoyloxy-4,4-dimethylthiochroman-6-yl)ethynyl)nicotinic acid, ethyl ester] | ~6.3 % Label | detectable in all samples | could not be detected | significant increase | only slightly increased | 52.0 ng/mL | 52.0 ng/mL | 50.0 ng/mL | 45.8 ng/mL | 29 | 7 | 8 | 7.76 min | 7.19 min | 71.4 min | 47.5 min | 
2 | CCOC(=O)c1ccc(C#Cc2ccc3c(c2)C(C)(C)CCS3)nc1 [Tazarotene, ethyl 6-[2-(4,4-dimethylthiochroman-6-yl)-ethynyl nicotinate] |  |  | could not be detected |  | only slightly increased | 17.1 ng/mL | 17.1 ng/mL | 16.6 ng/mL | 17.5 ng/mL | 103 to 180 | 12 | 33 to 43 | 7.88 min | 7.71 min | 8.38 min | 7.58 min | approximately 22%
